Reference: PMC10020666, “Oxidation modulates LINGO2-induced inactivation of large conductance, Ca^2+-activated potassium channels” (The Journal of Biological Chemistry, 2023)
“Also recorded” adds a separate entry of the source. Where two headings read alike, the source gives them in different places. Square brackets hold non-standard residues; d marks the D form. Peptide text beside a SMILES is read from it. Met(O) = CS(=O)CC[C@H](N)C(=O)O

Key:
[1] = tested on: BK:LINGO2 channels; experiment: Effect of oxidizing/reducing agents on BK:LINGO2 currents (inside-out patch, step to +160 mV); assay type: cell-based, rabbit BKα, human LINGO2
Experimental: (§1) All excised patch experiments were performed at 37 °C in 140 mM symmetrical K^+ solutions which contained 140 mM KCl, 10 mM glucose, 10 mM Hepes, and either 1 mM ethylene glycol-bis(β-amino ether)-N,N,N′,N′-tetraacetic acid (EGTA (for free [Ca^2+] 100 nM to 300 nM) or 1 mM hydroxyethylethylenediaminetriacetic acid (HEDTA for free [Ca^2+] 1 μM to 10 μM) and the pH of all solutions was adjusted to 7.2 with KOH. These solutions were made with double-distilled, deionized, filtered water from a MilliQ water purification system. The pipette solution contained 100 nM free Ca^2+. We used “Chelator” (https://www.ru.nl/animal/research/chelator/) to calculate the total amount of Ca^2+ required, as per Schoenmakers et al., ([40]) and free Ca^2+ concentrations were checked with a Ca^2+ sensitive electrode.
(§2) During experiments, the dish containing HEK cells was superfused with Hanks solution, which contained (in mM) 129.8 Na^+, 5.8 K^+, 135 Cl^-, 4.17 HCO3^-, 0.34 HPO4^2-, 0.44 H2PO4^-, 1.8 Ca^2+, 0.9 Mg^2+, 0.4 SO4^2-, 10 glucose, 2.9 sucrose, and 10 Hepes, and its pH was adjusted to 7.4 with NaOH. In addition, the patch under study was continuously superfused by means of a close delivery system consisting of a pipette (tip diameter 200 μm) placed approximately 300 μm away from the cell. This could be switched, with a dead-space time of around 5 s, to a solution containing a drug.
(§3) Electrodes were pulled from Corning borosilicate glass (1.5 mm O.D. × 0.86 mm I.D.) using a Sutter P-97 pipette puller and fire polished using a Narashige MF 83 microforge. Pipettes had resistances of 2 to 5 MΩ when filled with recording solutions and series resistance was compensated by up to 80%. Standard single-channel patch clamp recording methods were used. Voltage clamp commands were delivered via an Axopatch 200B patch clamp amplifier (Axon Instruments) connected to a Digidata 1322A AD/DA converter (Axon Instruments) interfaced to computers running pClamp software (Axon Instruments). Data was acquired at 100 KHz and filtered at 2 KHz or 5 KHz. Patches were held at either −60 mV or −100 mV and depolarized in 20 mV increments to 200 mV. Residual capacitance and leakage currents were subtracted using either a P/4 protocol or offline by manual leak subtraction.
(§4) The human LINGO2 transcript used [NM_001354575.2] was untagged in a pcDNA 3.1 vector (VectorBuilder). The α subunit of the rabbit BK channel was isolated from rabbit urethral smooth muscle and cloned using the pcDNA TOPO DNA cloning kit (Life Technologies). The identifiesd transcript corresponded to the ZERO variant of mouse BKα and to variant 2 (NM_002247.3) of human BKα. We used 100 ng ml^−1 cDNA for BKα only transfections, whereas a 100:500 ng ml^−1 cDNA ratio was used for BKα:LINGO2 and BKα:LINGO1 cotransfections for inside-out patch recordings. GFP (150 ng ml^−1) was included in all transfections except those used for Figure 2, C and D. cDNA was transiently transfected into HEK cells using lipofectamine. Site-directed mutagenesis used the Phusion kit (Thermo Fisher Scientific) method ([41]) and all mutations were confirmed by sequencing.
(§5) HEK293 cells were cultured in Dulbecco's modified Eagle's medium + MEM media containing 10% fetal bovine serum and 1% Penicillin-Streptomycin antibiotics at 37 °C, and 95% humidifying incubator containing 5% CO2. Subculturing was done by 0.05% Trypsin-EDTA solution.
All data is presented as mean ± SD and was analyzed with Prism software (GraphPad). Individual data points are also shown in bar charts. Statistical differences were assessed using either paired or unpaired nonparametric tests (Wilcoxin signed-rank test, Mann–Whitney test), or the extra sum of squares F-test, as appropriate. Comparisons of three or more nonparametric data sets used Friedman’s test followed by Dunn’s test for multiple comparisons, whereas ANOVA was used for three or more parametric data sets. p < 0.05 was taken as significant.

[2] = target: T1, BKα currents (BK channels) in HEK cell patches (Oryctolagus cuniculus, UniProt Q9BG98); experiment: Inhibition of BKα currents by synthetic LINGO2 tail peptides (excised inside-out patch clamp); assay type: cell-based, rabbit; settings: 1 μM Ca2+; for 95% Confidence Intervals of IC50Last5ms / IC50Last5ms increase compared to WT LINGO2 peptide: +160 mV; for IC50: step to +160 mV for 100 ms from -60 mV, inside-out patches, 37 °C, pH 7.2, Hill-Langmuir fit, mean ± SD; for Inactivation of BK currents by peptide: step to +160 mV, rate compared at 1 μM peptide; for IC50Last5ms increase compared to WT LINGO2 peptide: p < 0.001, extra sum of squares F-test
T1 construct: expressed in transfected cells; host or cells: HEK293 cells, transient transfection with lipofectamine (BKα cDNA plus GFP plasmid)
T1 sequence (Q9BG98 whole entry): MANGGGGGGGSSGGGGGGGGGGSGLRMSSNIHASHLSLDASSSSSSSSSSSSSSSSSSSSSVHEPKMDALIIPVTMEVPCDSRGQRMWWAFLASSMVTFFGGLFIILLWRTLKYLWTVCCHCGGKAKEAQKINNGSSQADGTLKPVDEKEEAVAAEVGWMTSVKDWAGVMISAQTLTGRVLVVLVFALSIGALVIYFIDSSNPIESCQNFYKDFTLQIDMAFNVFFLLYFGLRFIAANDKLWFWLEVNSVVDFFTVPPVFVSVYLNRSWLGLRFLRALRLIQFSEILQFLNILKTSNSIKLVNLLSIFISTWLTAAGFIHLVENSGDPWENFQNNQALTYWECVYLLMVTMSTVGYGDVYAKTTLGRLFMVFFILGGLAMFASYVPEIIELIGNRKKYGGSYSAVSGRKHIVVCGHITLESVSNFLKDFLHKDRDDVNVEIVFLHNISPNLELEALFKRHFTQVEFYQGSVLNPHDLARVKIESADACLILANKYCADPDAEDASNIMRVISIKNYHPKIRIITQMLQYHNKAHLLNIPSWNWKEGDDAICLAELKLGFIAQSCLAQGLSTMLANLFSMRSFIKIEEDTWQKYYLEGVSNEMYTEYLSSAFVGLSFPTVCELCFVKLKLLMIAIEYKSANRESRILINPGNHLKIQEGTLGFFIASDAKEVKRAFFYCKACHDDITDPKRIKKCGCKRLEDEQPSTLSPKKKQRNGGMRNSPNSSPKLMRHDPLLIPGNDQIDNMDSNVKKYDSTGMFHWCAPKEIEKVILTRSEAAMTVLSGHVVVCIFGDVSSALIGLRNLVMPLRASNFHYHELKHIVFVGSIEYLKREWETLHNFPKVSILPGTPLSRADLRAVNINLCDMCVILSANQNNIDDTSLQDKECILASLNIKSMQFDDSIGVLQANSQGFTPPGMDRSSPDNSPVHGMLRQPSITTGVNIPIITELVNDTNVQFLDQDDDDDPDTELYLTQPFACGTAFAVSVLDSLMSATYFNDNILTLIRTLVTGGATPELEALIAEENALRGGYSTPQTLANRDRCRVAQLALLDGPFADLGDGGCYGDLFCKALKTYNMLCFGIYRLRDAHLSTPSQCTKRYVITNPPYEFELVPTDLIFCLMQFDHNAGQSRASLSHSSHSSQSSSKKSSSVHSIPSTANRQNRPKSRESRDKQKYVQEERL
Experimental: as §1, §2, §3, §4, §5
Concentration–effect data were fitted with a Hill–Langmuir equation:[4] I/Icontrol=1/{1+10^ˆ(log[Drug]−logIC50)} where, I was the current recorded in the drug, Icontrol was the current in the absence of drug, IC50 was the half-maximal effective concentration, and [Drug] was the concentration variable.
All data is presented as mean ± SD and was analyzed with Prism software (GraphPad). Individual data points are also shown in bar charts. […]

[3] = target: α subunit of the rabbit BK channel (large conductance, Ca2+ and voltage-activated K+ channel) (rabbit)
[4] = n = 5 (M605 oxidized), 6 (M603 oxidized), 7 (both), read-out: IC50Last5ms (half maximal block of current amplitude in last 5 ms of pulse)

Molecule | IC50 [2, 4] [nM] | Inactivation of BK currents by peptide [2] | IC50Last5ms: concentration of the peptide that produced half maximal block in BKα current amplitude in the last 5 ms of a pulse to +160 mV (inside-out HEK patches, 1 μM Ca2+) [3] [nM] | other results
O[C@@H](CS)[C@@H](O)CS [DTT] | – | – | – | Effect of DTT alone on peak or sustained currents ([1]; 100 μM DTT, 1-5 min, 100 nM Ca2+, 5 to 7 experiments): failed to alter the peak (black circles) or sustained (purple diamonds) currents; Prevention of Ch-T effects by DTT pretreatment / continuous presence ([1]; 100 μM DTT, then with Ch-T 5-7 min, 100 nM Ca2+, 5 to 7 experiments): not prevented; also recorded: the effects of Ch-T were unaltered in the continuous presence of DTT; also recorded: resistant to treatment with the cysteine-specific reducing agent DTT; Reversal of Ch-T effects by DTT coapplication ([1]; 200 μM Ch-T 1-4 min, then Ch-T + DTT 4-7 min, 4 to 7 experiments): unable to reverse the effects of Ch-T
CC[C@H](C)[C@H](NC(=O)[C@H](CC[S+](C)[O-])NC(=O)[C@H](CCCCN)NC(=O)[C@H](CCSC)NC(=O)[C@H](CC(N)=O)NC(=O)[C@H](Cc1ccccc1)NC(=O)[C@H](CCCNC(=N)N)NC(=O)[C@H](CCCNC(=N)N)NC(C)=O)C(N)=O (stereo partly drawn) [Ac-RRFNMKM(O)I-NH2] (Ac-RRFNMK[Met(O)]I-NH2) | 2300 ± 700 | the rate of inactivation was slower compared to that observed with the WT peptide | – | 95% Confidence Intervals of IC50Last5ms ([2]; n = 5-7): 2000 to 2700 nM
CC[C@H](C)[C@H](NC(=O)[C@H](CC[S+](C)[O-])NC(=O)[C@H](CCCCN)NC(=O)[C@H](CC[S+](C)[O-])NC(=O)[C@H](CC(N)=O)NC(=O)[C@H](Cc1ccccc1)NC(=O)[C@H](CCCNC(=N)N)NC(=O)[C@H](CCCNC(=N)N)NC(C)=O)C(N)=O (stereo partly drawn) [Ac-RRFNM(O)KM(O)I-NH2] (Ac-RRFN[Met(O)]K[Met(O)]I-NH2) | 13900 ± 1100 | greatly reduced | – | IC50Last5ms increase compared to WT LINGO2 peptide [2]: ~50 fold; Inactivation of BK currents by peptide ([2]; listed as RRFNM(O)KM(O)I): inactivation was practically abolished at all concentrations tested; Inactivation of BK currents by peptide ([2]; listed as peptide containing Met(O) at both positions): time-dependent inactivation was practically abolished
Ac-RRFNMKMI-NH2 [Ac-RRFNMKMI-NH2] | – | caused inactivation, the rate of which was concentration-dependent | – | 95% Confidence Intervals of IC50Last5ms ([2]; n = 6): 223 to 303 nM; IC50 ([2]; n = 6, read-out: IC50Last5ms (half maximal block of current amplitude in last 5 ms of pulse)): 260 ± 78 nM
CC[C@H](C)[C@H](NC(=O)[C@H](CCSC)NC(=O)[C@H](CCCCN)NC(=O)[C@H](CC[S+](C)[O-])NC(=O)[C@H](CC(N)=O)NC(=O)[C@H](Cc1ccccc1)NC(=O)[C@H](CCCNC(=N)N)NC(=O)[C@H](CCCNC(=N)N)NC(C)=O)C(N)=O (stereo partly drawn) [Ac-RRFNM(O)KMI-NH2] (Ac-RRFN[Met(O)]KMI-NH2) | 6900 ± 500 | slower than that of the WT peptide | – | IC50Last5ms increase compared to WT LINGO2 peptide [2]: ~27 fold
Ac-RRFNMKMI-NH2 [LINGO2 tail peptide Ac-RRFNMKMI-NH2] | – | – | 260 | –
Ac-RRFNMK[Met(O)]I-NH2 (SMILES CC[C@H](C)[C@H](NC(=O)[C@H](CCS(C)=O)NC(=O)[C@H](CCCCN)NC(=O)[C@H](CCSC)NC(=O)[C@H](CC(N)=O)NC(=O)[C@H](Cc1ccccc1)NC(=O)[C@H](CCCNC(=N)N)NC(=O)[C@H](CCCNC(=N)N)NC(C)=O)C(N)=O) [LINGO2 tail peptide Ac-RRFNMKM(O)I-NH2] | – | – | 2300 | –
Ac-RRFN[Met(O)]K[Met(O)]I-NH2 (SMILES CC[C@H](C)[C@H](NC(=O)[C@H](CCS(C)=O)NC(=O)[C@H](CCCCN)NC(=O)[C@H](CCS(C)=O)NC(=O)[C@H](CC(N)=O)NC(=O)[C@H](Cc1ccccc1)NC(=O)[C@H](CCCNC(=N)N)NC(=O)[C@H](CCCNC(=N)N)NC(C)=O)C(N)=O) [LINGO2 tail peptide Ac-RRFNM(O)KM(O)I-NH2] | – | – | 13900 | –
Ac-RRFN[Met(O)]KMI-NH2 (SMILES CC[C@H](C)[C@H](NC(=O)[C@H](CCSC)NC(=O)[C@H](CCCCN)NC(=O)[C@H](CCS(C)=O)NC(=O)[C@H](CC(N)=O)NC(=O)[C@H](Cc1ccccc1)NC(=O)[C@H](CCCNC(=N)N)NC(=O)[C@H](CCCNC(=N)N)NC(C)=O)C(N)=O) [LINGO2 tail peptide Ac-RRFNM(O)KMI-NH2] | – | – | 6900 | –
